Test results from patent US20100125081A1, “NEW COMPOUNDS 574” (ASTRAZENECA AB, priority 2008, published 2010).
Where a name gives a salt, the structure may show the parent alone.

The compounds below were run against T1, human β-Secretase (Homo sapiens, UniProt P56817) (assay: TR-FRET assay (β-secretase enzyme, sBACE-Fc)). Conditions: soluble human β-secretase (AA 1-460) Fc fusion, substrate (Europium)CEVNLDAEFK(Qsy7) 100 nM, pH 4.5; unit inferred, nM taken.
T1 construct: soluble part of the human β-Secretase (AA 1-AA 460); Fc domain of IgG1 (C); made in house
T1 sequence (P56817 22-460): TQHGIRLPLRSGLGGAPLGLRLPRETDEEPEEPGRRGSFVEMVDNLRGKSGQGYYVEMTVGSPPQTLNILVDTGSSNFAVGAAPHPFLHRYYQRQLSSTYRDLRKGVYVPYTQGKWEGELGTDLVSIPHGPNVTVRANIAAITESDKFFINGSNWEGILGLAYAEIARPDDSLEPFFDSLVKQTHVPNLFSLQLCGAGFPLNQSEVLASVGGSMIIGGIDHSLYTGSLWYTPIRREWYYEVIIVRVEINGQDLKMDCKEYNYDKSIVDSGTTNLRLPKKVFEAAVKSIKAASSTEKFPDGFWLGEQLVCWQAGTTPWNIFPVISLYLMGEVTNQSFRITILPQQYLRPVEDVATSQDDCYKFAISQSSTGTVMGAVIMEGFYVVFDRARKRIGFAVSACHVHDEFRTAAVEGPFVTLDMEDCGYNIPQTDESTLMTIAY
Format: biochemical
Experimental: The β-secretase enzyme used in the TR-FRET is prepared as follows:
The cDNA for the soluble part of the human β-Secretase (AA 1-AA 460) was cloned using the ASP2-Fc10-1-IRES-GFP-neoK mammalian expression vector. The gene was fused to the Fc domain of IgG1 (affinity tag) and stably cloned into HEK 293 cells.
The enzyme (truncated form) was diluted to 6 μg/mL (stock 1.3 mg/mL) and the substrate (Europium)CEVNLDAEFK(Qsy7) to 200 nM (stock 120 μM) in reaction buffer (NaAcetate, chaps, triton x-100, EDTA pH4.5). The robotic systems Biomek FX and Velocity 11 were used for all liquid handling and the enzyme and substrate solutions were kept on ice until they were placed in the robotic system. Enzyme (9 μl) was added to the plate then 1 μl of compound in dimethylsulphoxide was added, mixed and pre-incubated for 10 minutes. Substrate (10 μl) was then added, mixed and the reaction proceeded for 15 minutes at room temperature. The reaction was stopped with the addition of Stop solution (7 μl, NaAcetate, pH 9). The fluorescence of the product was measured on a Victor II plate reader with an excitation wavelength of 340 nm and an emission wavelength of 615 nm. The assay was performed in a Costar 384 well round bottom, low volume, non-binding surface plate (Corning #3676). The final concentration of the enzyme was 2.7 μg/ml; the final concentration of substrate was 100 nM (Km of ˜250 nM). The dimethylsulphoxide control, instead of test compound, defined the 100% activity level and 0% activity was defined by wells lacking enzyme (replaced with reaction buffer).

| SMILES | IC50 [nM] |
| --- | --- |
| NC1=NC(c2cccc(-c3cncnc3)c2)(c2ccnc(OC=C(F)F)c2)c2cccnc21 (stereo not drawn) [Example 17, 5-(2-(2,2-Difluorovinyloxy)pyridin-4-yl)-5-(3-(pyrimidin-5-yl)phenyl)-5H-pyrrolo[3,4-b]pyridin-7-amine 0.2 acetic acid] | 1140 |
| Cc1cc(C2(c3cccc(-c4cncnc4)c3)N=C(N)c3ncccc32)cc(C)n1 (stereo not drawn) [Example 4, 5-(2,6-Dimethylpyridin-4-yl)-5-(3-(pyrimidin-5-yl)phenyl)-5H-pyrrolo[3,4-b]pyridin-7-amine] | 1800 |
| Cc1cc(C2(c3cccc(-c4cncnc4)c3)N=C(N)c3ncccc32)cc(C(F)F)n1 (stereo not drawn) [Example 20, 5-(2-(Difluoromethyl)-6-methylpyridin-4-yl)-5-(3-(pyrimidin-5-yl)phenyl)-5H-pyrrolo[3,4-b]pyridin-7-amine] | 445 |
| Cc1cc(C2(c3cccc(-c4cncnc4)c3)N=C(N)c3ncccc32)cc(C)c1F (stereo not drawn) [Example 14, 5-(4-Fluoro-3,5-dimethylphenyl)-5-(3-(pyrimidin-5-yl)phenyl)-5H-pyrrolo[3,4-b]pyridin-7-amine] | 593 |
| Cc1cc(C2(c3cccc(-c4cncc(C#N)c4)c3)N=C(N)c3ncccc32)cc(C)n1 (stereo not drawn) [Example 5, 5-(3-(7-Amino-5-(2,6-dimethylpyridin-4-yl)-5H-pyrrolo[3,4-b]pyridin-5-yl)phenyl)nicotinonitrile] | 2400 |
| NC1=NC(c2cccc(-c3cncnc3)c2)(c2ccnc(C(F)(F)F)c2)c2cccnc21 (stereo not drawn) [Example 2, 5-(3-(pyrimidin-5-yl)phenyl)-5-(2-(trifluoromethyl)pyridin-4-yl)-5H-pyrrolo[3,4-b]pyridin-7-amine] | 350 |
| NC1=NC(c2cccc(-c3cccnc3)c2)(c2ccnc(C(F)(F)F)c2)c2cccnc21 (stereo not drawn) [Example 3, 5-(3-(Pyridin-3-yl)phenyl)-5-(2-(trifluoromethyl)pyridin-4-yl)-5H-pyrrolo[3,4-b]pyridin-7-amine] | 560 |
| NC1=NC(c2cccc(-c3cncc(Cl)c3)c2)(c2ccnc(C(F)(F)F)c2)c2cccnc21 (stereo not drawn) [Example 21, 5-(3-(5-Chloropyridin-3-yl)phenyl)-5-(2-(trifluoromethyl)pyridin-4-yl)-5H-pyrrolo[3,4-b]pyridin-7-amine] | 239 |
| NC1=NC(c2cccc(-c3cncnc3)c2)(c2ccc(OC(F)F)c(F)c2)c2cccnc21 (stereo not drawn) [Example 18, 5-(4-(Difluoromethoxy)-3-fluorophenyl)-5-(3-(pyrimidin-5-yl)phenyl)-5H-pyrrolo[3,4-b]pyridin-7-amine] | 204 |
| NC1=NC(c2cccc(-c3cncnc3)c2)(c2ccc(OC(F)F)c(C3CC3)c2)c2cccnc21 (stereo not drawn) [Example 9, 5-(3-Cyclopropyl-4-(difluoromethoxy)phenyl)-5-(3-(pyrimidin-5-yl)phenyl)-5H-pyrrolo[3,4-b]pyridin-7-amine acetic acid] | 33 |

Continued by falling IC50, values first:

| IC50 [nM] | SMILES |
| --- | --- |
| 2120 | COc1ccc(C2(c3cccc(-c4cncnc4)c3)N=C(N)c3ncc(C)cc32)cc1 (stereo not drawn) [Example 11, 5-(4-Methoxyphenyl)-3-methyl-5-(3-(pyrimidin-5-yl)phenyl)-5H-pyrrolo[3,4-b]pyridin-7-amine] |
| 1600 | NC1=NC(c2cccc(-c3cncnc3)c2)(c2ccnc(OCC(F)(F)F)c2)c2cccnc21 (stereo not drawn) [Example 16, 5-(3-(Pyrimidin-5-yl)phenyl)-5-(2-(2,2,2-trifluoroethoxy)pyridin-4-yl)-5H-pyrrolo[3,4-b]pyridin-7-amine 0.2 acetic acid] |
| 658 | NC1=NC(c2ccnc(C(F)(F)F)c2)(c2ccc(O)c(-c3ccccc3F)c2)c2cccnc21 (stereo not drawn) [Example 38, 5-(7-Amino-5-(2-(trifluoromethyl)pyridin-4-yl)-5H-pyrrolo[3,4-b]pyridin-5-yl)-2′-fluorobiphenyl-2-ol] |
| 639 | Cc1cc(C2(c3cccc(-c4cncnc4)c3)N=C(N)c3ncc(Cl)cc32)ccn1 (stereo not drawn) [Example 10, 3-Chloro-5-(2-methylpyridin-4-yl)-5-(3-(pyrimidin-5-yl)phenyl)-5H-pyrrolo[3,4-b]pyridin-7-amine] |
| 359 | COc1ccnc(-c2cccc(C3(c4ccnc(C(F)(F)F)c4)N=C(N)c4ncccc43)c2)c1 (stereo not drawn) [Example 19, 5-(3-(4-methoxypyridin-2-yl)phenyl)-5-(2-(trifluoromethyl)pyridin-4-yl)-5H-pyrrolo[3,4-b]pyridin-7-amine] |
| 248 | COc1ccc(C2(c3cccc(-c4cncnc4)c3)N=C(N)c3ncccc32)cc1Cl (stereo not drawn) [Example 7, 5-(3-Chloro-4-methoxyphenyl)-5-(3-(pyrimidin-5-yl)phenyl)-5H-pyrrolo[3,4-b]pyridin-7-amine] |
| 176 | NC1=NC(c2cccc(-c3cncnc3)c2)(c2ccnc(C(F)(F)F)c2)c2cccnc21 (single isomer, unassigned) [25, Isomer 2] |
| 156 | COc1c(F)cc(C2(c3ccc(F)c(-c4cncnc4)c3)N=C(N)c3ncccc32)cc1F (stereo not drawn) [Example 6, 5-(3,5-Difluoro-4-methoxyphenyl)-5-(4-fluoro-3-(pyrimidin-5-yl)phenyl)-5H-pyrrolo[3,4-b]pyridin-7-amine] |
| 125 | COc1c(C)cc(C2(c3cccc(-c4cncnc4)c3)N=C(N)c3ncccc32)nc1C (stereo not drawn) [Example 35, 5-(5-Methoxy-4,6-dimethyl-pyridin-2-yl)-5-(3-pyrimidin-5-yl-phenyl)-5H-pyrrolo[3,4-b]pyridin-7-ylamine] |
| 119 | Cc1cc(C2(c3ccnc(-c4cncnc4)c3)N=C(N)c3ncccc32)cc(C2CC2)c1OC(F)F (stereo not drawn) [Example 30, 5-(3-Cyclopropyl-4-difluoromethoxy-5-methyl-phenyl)-5-(2-pyrimidin-5-yl-pyridin-4-yl)-5H-pyrrolo[3,4-b]pyridin-7-ylamine] |
| 106 | Cc1cc(C2(c3ccnc(-c4cncnc4)c3)N=C(N)c3ncccc32)cc(C)c1OC(F)F (stereo not drawn) [Example 29, 5-(4-Difluoromethoxy-3,5-dimethyl-phenyl)-5-(2-pyrimidin-5-yl-pyridin-4-yl)-5H-pyrrolo[3,4-b]pyridin-7-ylamine] |
| 96 | COc1c(C)cc(C2(c3cccc(-c4cnccn4)c3)N=C(N)c3ncccc32)cc1F (stereo not drawn) [Example 15, 5-(3-Fluoro-4-methoxy-5-methylphenyl)-5-(3-(pyrazin-2-yl)phenyl)-5H-pyrrolo[3,4-b]pyridin-7-amine trifluoroacetic acid salt] |
| 90 | Cc1cc(C2(c3cccc(-c4cnccn4)c3)N=C(N)c3ncccc32)cc(C)c1OCF (stereo not drawn) [Example 27, 5-(4-(Fluoromethoxy)-3,5-dimethylphenyl)-5-(3-(pyrazin-2-yl)phenyl)-5H-pyrrolo[3,4-b]pyridin-7-amine] |
| 38 | Cc1cc(C2(c3cccc(-c4cnccn4)c3)N=C(N)c3ncccc32)cc(C)c1OC(F)F (stereo not drawn) [Example 13, 5-(4-(Difluoromethoxy)-3,5-dimethylphenyl)-5-(3-(pyrazin-2-yl)phenyl)-5H-pyrrolo[3,4-b]pyridin-7-amine] |
